Laboratory results taken from patent publication US20060142374A1, “Crystal for oral solid drug and oral solid drug for dysuria treatment containing the same” (KISSEI PHARMACEUTICAL CO., LTD., priority 2002, published 2006).

Experiments:
Assay type in all cases: physicochemical
[1] = Stability to light on preservation; settings: content of active ingredient decreases depending on preserved condition with time
[2] = Moisture absorption test (weight change after storage); settings: for Moisture absorption (hygroscopicity): summary, compared with the amorphous
Procedure: In the same manner as that of Test Example 1, the crystals obtained in Examples 1-3 and the amorphous were used for the test. Approximately 1 g of test substance was weighed accurately and put it into a sample vial. After the test substance was allowed to stand in an opening constant temperature and humidity device under following condition, their differences of weights were measured.
Condition 1: Allowing to stand at 25° C. and 60% of relative humidity in the constant temperature and humidity device for 3 days
Condition 2: Allowing to stand at 40° C. and 75% of relative humidity in the constant temperature and humidity device for 3 days

[3] = Stability test (appearance by naked eye, purity by liquid chromatography after storage); settings: for Stability in respect of purity and appearance: summary of storage conditions 1-4
Procedure: Appearance and purity of each crystal obtained in Examples 1-3 and an amorphous obtained by freeze-drying a solution of KMD-3213 in dioxane were determined after allowing to stand under following conditions. As for appearance, it was determined by color and properties with the naked eye. Purity was determined by integral percentage method with liquid chromatography.
Condition 1: Allowing to stand at 40° C. in the constant temperature device for 28 days
Condition 2: Allowing to stand at 60° C. in the constant temperature device for 28 days
Condition 3: Allowing to stand at 80° C. in the constant temperature device for 25 days
Condition 4: Allowing to stand at 40° C. and relative humidity 75% in the constant temperature device for 28 days
The Liquid Chromatography Condition:
Detector: ultraviolet absorption spectrophotometer (wave length: 225 nm)
Column: Intertsil ODS-3 (GL Science, 5 μm, 4.6 mm×25 cm)
Column temperature: about 25° C.
Mobile Phase: To 3.9 g of sodium dihydrogen phosphate was added 2.5 mL of diluted phosphoric acid solution (1→20) accurately, and water was added to make 1000 mL of a solution accurately. A 5:2 mixed solution of the resulting solution and acetonitrile.

[4] = Condition 1: 25° C. and 60% relative humidity for 3 days
[5] = Condition 2: 40° C. and 75% relative humidity for 3 days
[6] = Condition 1: 40° C. for 28 days
[7] = Condition 2: 60° C. for 28 days
[8] = Condition 3: 80° C. for 25 days
[9] = Condition 4: 40° C. and relative humidity 75% for 28 days
[10] = Initial, liquid chromatography, integral percentage method

| Stability for light [1] | Change(%) of weight [2, 4] | Change(%) of weight [2, 5] | Appearance [3, 6] | Purity (%) [3, 6] | Appearance [3, 7] | Purity (%) [3, 7] | Appearance [3, 8] | Purity (%) [3, 8] | Appearance [3, 9] | Purity (%) [3, 9] | Appearance ([3]; Initial) | Purity (%) [3, 10] | Moisture absorption (hygroscopicity) [2] | Stability in respect of purity and appearance ([3]; listed as crystal form a) | Stability in respect of purity and appearance ([3]; listed as crystal form α) | Structure (SMILES) |
| --- | --- | --- | --- | --- | --- | --- | --- | --- | --- | --- | --- | --- | --- | --- | --- | --- |
| unstable for light relatively |  |  |  |  |  |  |  |  |  |  |  |  |  |  |  | C[C@H](Cc1cc2c(c(C(N)=O)c1)N(CCCO)CC2)NCCOc1ccccc1OCC(F)(F)F [KMD-3213] |
|  | +1.61% | +1.31% | White powder | 99.66% | Pale yellow | 99.56% | Pale yellowish | 99.53% | White powder | 99.71% | White powder | 99.79% |  |  |  | C[C@H](Cc1cc2c(c(C(N)=O)c1)N(CCCO)CC2)NCCOc1ccccc1OCC(F)(F)F [amorphous, KMD-3213] |
|  | −0.01% | −0.20% | White powder | 99.84% | White powder | 99.84% | Pale yellow | 99.58% | White powder | 99.85% | White powder | 99.90% | absorbing moisture scarcely | extremely stable | the most stable | C[C@H](Cc1cc2c(c(C(N)=O)c1)N(CCCO)CC2)NCCOc1ccccc1OCC(F)(F)F [α, KMD-3213] |
|  | +0.07% | −0.08% | Pale yellow powder | 99.73% | Pale yellowish | 99.57% | Pale brown powder | 98.42% | Pale yellow powder | 99.69% | Pale yellow powder | 99.83% | absorbing moisture scarcely |  |  | C[C@H](Cc1cc2c(c(C(N)=O)c1)N(CCCO)CC2)NCCOc1ccccc1OCC(F)(F)F [β, KMD-3213] |
|  | 0.00% | −0.19% | Pale yellow powder | 99.85% | Pale yellow powder | 99.84% | Pale yellow powder | 99.64% | Pale yellow powder | 99.85% | Pale yellow powder | 99.88% | absorbing moisture scarcely |  |  | C[C@H](Cc1cc2c(c(C(N)=O)c1)N(CCCO)CC2)NCCOc1ccccc1OCC(F)(F)F [γ, KMD-3213] |
